The text below walks through data of patent publication US9675664B2, “Compositions, formulations and methods of treating preeclampsia-type disorders of pregnancy” (Women & Infants' Hospital of Rhode Island, priority 2009, dated 2017).

For series [1] the following is noted: endogenous TTR; cited from earlier work.
Series [2] concerns endothelial cells (EC) and trophoblasts (HTR) crosstalk. In words: In vitro endothelial cell-trophoblast co-culture tube (vacuole) formation assay on matrigel with pregnancy serum. The format is cell-based, human. The settings on record: for rescue of mild PE serum induced disrupted EC-HTR8 crosstalk (tube assay): mild preeclampsia serum (mPE), TTR preincubated at 0.1, 1.0, 10 μg/ml of serum; for rescue of severe PE serum induced disrupted EC-HTR8 crosstalk (tube assay): severe preeclampsia serum (sPE), TTR preincubated at 0.1, 1.0, 10 microgram/ml of serum. An excerpt:
The in vitro assay described in this example is based on the premise that during normal pregnancy, fetal derived trophoblasts called the “invasive cytotrophoblasts” invade the maternal decidua and the endothelial cell lined spiral arteries. This phenomenon can be restructured using serum from pregnancy as physiological milieu and culturing human umbilical vein endothelial cells and trophoblasts on basement membrane such as matrigel. […] For additional information see U.S. Provisional Patent Application No. 61/063,491 filed Feb. 4, 2008 and/or Kalkunte, In Vitro and In Vivo Evidence for Lack of Vascular Remodeling by Third Trimester Trophoblasts, Placenta 29: 871-78 (2008).
Recombinantly produced TTR (detected by SDS-PAGE electrophoresis and purity 96%) was obtained from AbD Serotec, Raleigh, N.C. 27604, USA. Recombinant TTR obtained in lyophilized form was reconstituted with sterile phosphate-saline buffer to obtain a final concentration of 1 mg/ml and maintained at >pH 7.0. The solutions were stored as aliquots frozen at −80° C. until use. Thirty minutes prior to experimentation, the aliquots of TTR were thawed, then mixed with serum and incubated at 37° C. for 30 minutes.
The in vitro method further includes incubating a co-culture of human endothelial cells and human trophoblast cells in the presence of serum or plasma obtained from a pregnant person for a period of time sufficient to permit vacuolization (also referred to as “capillary formation” and “tube formation” in FIGS. 2-4), and after incubation determining whether substantial vacuolization in the co-culture has occurred by quantification as described in Example 3.
During pregnancy, angiogenesis is characterized by spiral artery remodeling for which trophoblast invasion into these maternal blood vessels is a prerequisite. The data of FIG. 2 show an in vitro model of interaction of trophoblasts and endothelial cells that mimics spiral artery remodeling. Specifically, 2.5×10^4 endothelial cells labeled red and 2.5×10^4 trophoblasts, labeled green, were co-cultured on matrigel coated plates and stimulated with either NPS (normal pregnancy serum) or severe PES (Preeclampsia Serum) as described above. In the absence of exogenous TTR, serum from severe (FIG. 2 Panel B #5 and C #9) preeclampsia patients blocks the “cross-talk” between endothelial-trophoblast cells, causing obvious differences in architecture as compared to the same cells stimulated under the same conditions with NPS serum (sample L1045; FIG. 2 Panel A, #1).
Briefly, 2.5×10^4 endothelial cells labeled red and 2.5×10^4 trophoblasts, each from different trimesters labeled green (FIG. 2), were co-cultured on matrigel coated plates and stimulated with either NPS or mild PES as described above. […] The number of vacuoles (or tubes) formed per sample were counted and represented in the graph (FIG. 4, mPE with and without TTR). […] Statistical significance of experimental differences was assessed using Student's paired t-test. […]
The in vitro studies conducted in Example 2 were quantified by counting the number of tube like structures termed as “vacuole” under fluorescence microscope (Nikon Eclipse TS 100 coupled with CCD camera) in four different fields at 4× magnification. […]

Series [3] concerns Pregnant IL-10−/− mice. In words: In vivo rescue of PE serum induced preeclampsia-like symptoms in pregnant IL-10-/- mice. As for the experimental part: Recombinantly produced TTR (detected by SDS-PAGE electrophoresis and purity 96%) was obtained from AbD Serotec, Raleigh, N.C. 27604, USA. Recombinant TTR obtained in lyophilized form was reconstituted with sterile phosphate-saline buffer to obtain a final concentration of 1 mg/ml and maintained at >pH 7.0. The solutions were stored as aliquots and frozen at −80° C. until use. Thirty minutes prior to experimentation, the aliquots of TTR were thawed, then mixed with 100 μl of PE serum samples. Pregnant IL-10^−/− mice (C57BL/6, Jackson Labs, USA) were then injected intraperitoneally on gestational day (g.d.) 10 at a TTR dose of 20 microgram/mouse. The gestational period in mice is 20 days. Similarly, 100 μl PE serum or normal pregnancy serum was administered to different set of animals as control. On g.d.16/17, urine and serum samples were collected from each mouse, and blood pressure measurements were taken. Blood pressure was taken by an established tail-cuff method which utilizes a programmed sphygmomanometer. The animals adapted for 5 min using a warming test chamber (IITC Life Science Inc, Woodland Hills, Calif.) at controlled temperature (35° C.). The measurements were carried out on day 17 of pregnancy using DigiMed blood pressure analyzer, (MicroMed, Louisville, Ky., 40222-4683). Each measurement of blood pressure is an average of three readings at 1 min intervals from a number of animals (˜3-5 each). Systolic blood pressure was compared among non-pregnant and pregnant mice. All animals were age matched. Data was analyzed using Digi-Med® System Integrator™ Model 400 (DMSI-400).
Total urinary albumen was measures using Albumin (mouse) ELISA kit (ALPCO Diagnostics, Salem, N.H.) and urinary creatinine was measured using Metra Creatinine Kit (Quidel Corporation, San Diego, Calif.). Protinuria as represented as a ration of urinary albumin to creatinine (expressed as μg/mg). (Baseline values seen in mice range from 100-400 μg/mg.)
On g.d. 17 the mice were euthanized, the uterine horns were extracted, photographed and pregnancy outcomes were recorded. […] 10 in IL10^−/− mice. The effects in response to only one administration of serum (100 μl) were evaluated on g.d. 17.

Where [4] appears, read: sPE serum 100 μl i.p. on g.d. 10 with co-administered TTR 20 microgram/mouse, evaluated g.d. 17.

Take transthyretin [endogenous TTR]: in series [1], the half life entry is “approximately 2 days”.

With transthyretin [recombinant TTR], in series [2], the “rescue of mild PE serum induced disrupted EC-HTR8 crosstalk (tube assay)” value is on record as “substantially rescues” and the “rescue of severe PE serum induced disrupted EC-HTR8 crosstalk (tube assay)” value is listed as “substantially rescues”. Further, in series [2] (listed as Recombinant TTR), the “rescue of mild PE serum induced disrupted EC-HTR8 crosstalk (tube assay)” value was “rescues mPE serum induced disruption” and the “rescue of severe PE serum induced disrupted EC-HTR8 crosstalk (tube assay)” value is on record as “rescues sPE serum induced disruption”. The “effect on NPS mediated tube formation” value in series [2] (normal pregnancy serum (NPS), TTR 0.1, 1.0, 10 microgram/ml of serum) is “no significant effect”. In addition, the “TTR levels in mouse serum (SELDI-TOF relative intensity)” value in series [3] (reduction induced by severe preeclampsia serum, FIG. 6) is recorded as “rescued”. Moreover, in series [3] (setting [4]), the “intrauterine growth restriction (fetal weight)” value is “rescues sPE serum induced anomalies” and the “systolic blood pressure (hypertension)” value is on record as “rescues sPE serum induced anomalies”. Moreover, the “proteinuria (urinary albumin to creatinine ratio)” value in series [3] (sPE serum 100 μl i.p. on g.d. 10 with co-administered TTR 20 microgram/mouse, urine g.d. 16/17) is listed as “rescues sPE serum induced anomalies”.
